“And” between values parts separate entries of the source, which are not always exact repeats. Equal entries are not always repeated. “Also recorded” adds a separate entry of the source.
What was measured:
[1] = biological target: T1, SGLT2 (Homo sapiens, UniProt P31639); assay: 1-NBDG uptake in HEK293 cells stably expressing SGLT2; format: cell-based
T1 construct: Human full-length SGLT2 cDNA (NM_003041.3) was synthesized; expressed in transfected cells; host or cells: HEK293, retroviral transduction with pMSCVpuro-SGLT2, puromycin selected
T1 sequence (P31639 1-672): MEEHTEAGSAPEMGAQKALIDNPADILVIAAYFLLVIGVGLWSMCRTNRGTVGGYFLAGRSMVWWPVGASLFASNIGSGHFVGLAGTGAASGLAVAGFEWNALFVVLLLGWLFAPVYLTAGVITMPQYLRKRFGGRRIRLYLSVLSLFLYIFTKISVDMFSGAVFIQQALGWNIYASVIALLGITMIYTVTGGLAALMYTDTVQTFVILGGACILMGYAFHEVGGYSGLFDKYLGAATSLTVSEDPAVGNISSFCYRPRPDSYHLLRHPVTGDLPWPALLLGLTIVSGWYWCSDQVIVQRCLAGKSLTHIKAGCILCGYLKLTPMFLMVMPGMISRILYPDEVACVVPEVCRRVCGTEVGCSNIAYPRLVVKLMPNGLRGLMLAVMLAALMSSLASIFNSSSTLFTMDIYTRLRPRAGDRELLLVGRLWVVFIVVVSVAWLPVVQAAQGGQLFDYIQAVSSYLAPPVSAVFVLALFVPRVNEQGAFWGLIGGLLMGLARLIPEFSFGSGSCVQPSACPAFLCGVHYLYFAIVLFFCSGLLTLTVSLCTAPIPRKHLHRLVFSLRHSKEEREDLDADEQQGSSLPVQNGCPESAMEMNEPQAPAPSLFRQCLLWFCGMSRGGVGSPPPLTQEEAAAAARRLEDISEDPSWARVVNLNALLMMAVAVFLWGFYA

[2] = biological target: T2, SGLT1 (Homo sapiens, UniProt P13866); assay: 1-NBDG uptake in HEK293 cells stably expressing SGLT1; format: cell-based; conditions: HEK293, compound at 10 μM; triplicate; read-out: SGLT1 inhibitory rates
T2 construct: The full-length SGLT1 cDNA was obtained by PCR with forward primer; expressed in transfected cells
T2 sequence (P13866 1-664): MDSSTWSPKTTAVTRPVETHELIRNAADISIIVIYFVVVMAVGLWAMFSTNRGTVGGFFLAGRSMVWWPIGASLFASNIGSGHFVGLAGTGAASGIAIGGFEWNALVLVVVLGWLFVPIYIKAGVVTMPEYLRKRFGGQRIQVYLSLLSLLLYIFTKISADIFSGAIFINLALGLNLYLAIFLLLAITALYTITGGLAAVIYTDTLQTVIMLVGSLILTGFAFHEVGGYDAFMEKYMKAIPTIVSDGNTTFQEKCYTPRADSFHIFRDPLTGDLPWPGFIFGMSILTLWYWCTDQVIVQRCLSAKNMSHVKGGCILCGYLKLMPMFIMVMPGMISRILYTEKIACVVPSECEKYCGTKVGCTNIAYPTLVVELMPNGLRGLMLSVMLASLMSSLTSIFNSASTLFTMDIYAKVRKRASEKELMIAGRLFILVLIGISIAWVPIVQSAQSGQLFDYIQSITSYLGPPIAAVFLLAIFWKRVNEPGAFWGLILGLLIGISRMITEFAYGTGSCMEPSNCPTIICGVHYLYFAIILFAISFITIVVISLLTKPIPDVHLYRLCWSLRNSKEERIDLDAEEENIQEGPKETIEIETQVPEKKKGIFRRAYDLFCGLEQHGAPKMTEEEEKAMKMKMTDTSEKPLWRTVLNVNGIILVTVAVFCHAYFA

[3] = test system: KKAy mice; assay: Hypoglycemic effect in T2DM KKAy mice, blood glucose; format: in vivo; conditions: for blood glucose: individual mice
Method: (§1) To evaluate the hypoglycemic effect of 46a in type 2 diabetes mellitus (T2DM), female KKAy mice weighing 42–48 g were obtained from the Animal Center of the Institute of Laboratory Animal Sciences, Chinese Academy of Medical Sciences and Peking Union Medical College. […] Blood samples were collected at 1, 2, 4, 6, 8, 24, and 48 h after treatment. […] The glucose levels in urine 4 h and 6 h after administration were also determined using a Biosen C-Line Glucose analyzer (EKF Diagnostics, Germany).

[4] = test system: alloxan-induced DM mice; assay: Hypoglycemic effect in alloxan-induced diabetic mellitus (DM) mice; format: in vivo; conditions: for OD505nm (nonfasting blood glucose): individual mice
Method: Type 1 diabetes mellitus (T1DM) mice were established by intravenous injection of alloxan tetrahydrate (68 mg kg^‒1 BW). […] Nonfasting blood glucose was kinetically monitored at 1, 2, 4, 6, 8, 24, and 48 h after treatment with 46a.

[5] = test system: ICR mice; assay: Oral glucose-tolerance test (OGTT) in normal ICR mice; format: in vivo; conditions: for OD505nm (blood glucose, GOD assay) in OGTT: individual mice
Method: The hypoglycemic effect of 46a was firstly evaluated by oral glucose-tolerance test (OGTT) in mice with normal blood glucose levels. Male Institute of Cancer Research (ICR) mice weighing 24–26 g were obtained from Beijing Vital River Laboratory Animal Technology Co., Ltd (Beijing, China) and divided into three groups (n = 7–8). […] After 2 h of fasting, blood samples were collected from the tails for determination of baseline values of blood glucose (0 min). The mice were then orally administered glucose (2 g kg^‒1 BW), and blood samples were collected at 15, 30, 60, and 120 min. A glucose oxidase (GOD) assay was used for blood glucose-level measurement. The values of area under the glucose-time curve (AUC) were calculated.

[6] = test system: KKAy mice; assay: Urinary glucose excretion in T2DM KKAy mice; format: in vivo; conditions: for glucose in urine: 46a 100 mg kg^‒1 or dapagliflozin 5mg/kg, individual mice
Method: as §1

[7] = biological target: AbCGT (Aloe vera, UniProt A0A7G9P699); assay: Sugar donor promiscuity of AbCGT with phloretin (17) as acceptor; format: biochemical, Aloe barbadensis; conditions: sugar donor with phloretin (17) as acceptor; Reaction-1 to -3
Chain of AbCGT (A0A7G9P699 entry or part of it): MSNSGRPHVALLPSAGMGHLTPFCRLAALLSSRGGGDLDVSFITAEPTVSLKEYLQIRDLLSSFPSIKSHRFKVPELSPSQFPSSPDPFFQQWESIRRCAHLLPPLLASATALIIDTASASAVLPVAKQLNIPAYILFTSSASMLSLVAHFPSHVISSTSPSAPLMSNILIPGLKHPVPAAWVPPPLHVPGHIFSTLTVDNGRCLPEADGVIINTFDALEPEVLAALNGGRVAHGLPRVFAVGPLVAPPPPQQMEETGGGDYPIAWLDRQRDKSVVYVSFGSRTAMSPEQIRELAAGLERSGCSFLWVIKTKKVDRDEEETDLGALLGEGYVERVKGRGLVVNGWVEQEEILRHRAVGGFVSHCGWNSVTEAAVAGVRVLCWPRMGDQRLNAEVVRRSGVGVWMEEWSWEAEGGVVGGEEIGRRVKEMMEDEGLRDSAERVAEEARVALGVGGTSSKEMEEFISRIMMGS
Method: The reaction mixture contained 0.5 mM sugar donors (1.0 mM for di-glycosylation), 0.25 mM aglycons, 50 mM Tris-HCl (pH 7.4), and 50‒100 μg of purified AbCGT in a final volume of 100 μL. Due to the instability of some acceptors in the buffer of pH 11.0, the reactions were performed under the physiological conditions (pH 7.4, 30 °C) to compare the catalytic activities of AbGT27 with different substrates under the same conditions. The reactions were performed at 30 °C for up to 12 h and terminated by the addition of 200 μL of ice-cold methanol. Subsequently, samples were centrifuged at 15,000 × g for 30 min to collect the supernatant, and aliquots were analyzed by HPLC-UV/ESIMS. HPLC analysis was performed on a Shiseido CAPCELL PAK C18 MG III column (250 mm × 4.6 mm I.D., 5 μm, Shiseido Co., Ltd., Japan) at a flow rate of 1 mL min^‒1. The mobile phase was a gradient elution of solvents A (0.1% formic acid aqueous solution) and B (methanol). The gradient programs were used for the analysis of the reactions (Supplementary Table 6). The conversion rates of the enzyme reactions were calculated from peak areas of glycosylated products and substrates as analyzed by HPLC. To facilitate inferential statistical analysis, three parallel assays were routinely performed; the means ± SD from triplicate analyses are reported here.

In the case of `Cc1ccc(Cc2c(O)cc(O)c(C3OC(CO)C(O)C(O)C3O)c2O)cc1` (stereo not drawn) [Compound 46a], the inhibition at 10 µM ([1]; HEK293, compound at 10 μM, triplicate, read-out: SGLT2 inhibitory rates) is reported as over 96%, the SGLT2 inhibitory rates ([1]; compound at 10 μM, triplicate, 10 µM) is reported as 100% and the “increase of SGLT2 inhibitory activity compared to the unsubstituted glycoside 38a” value ([1]; from IC50 values, 46a vs 38a) is reported as “more than 17 times”. The inhibition at 10 µM [2] was 50.4%, the blood glucose ([3]; 0h, KKAy mice, single dose 46a 100 mg kg^‒1 or dapagliflozin 5 mg kg^‒1) was 391.7 mg/dL and 463.4 mg/dL and 285.8 mg/dL and 498.6 mg/dL and 457.9 mg/dL and 376.2 mg/dL and 436.2 mg/dL and the blood glucose ([3]; 1h, same doses) was 205.3 mg/dL and 315 mg/dL and 262 mg/dL and 341.1 mg/dL and 283 mg/dL and 307.9 mg/dL and 329 mg/dL. For the same compound, the blood glucose ([3]; 2h, same doses) was 212.4 mg/dL and 285.2 mg/dL and 250.2 mg/dL and 371.1 mg/dL and 288 mg/dL and 260.7 mg/dL and 328.6 mg/dL, the blood glucose ([3]; 4h, same doses) was 205.2 mg/dL and 255.5 mg/dL and 229.1 mg/dL and 299.5 mg/dL and 368.8 mg/dL and 243.8 mg/dL and 201.2 mg/dL and the blood glucose ([3]; 6h, same doses) was 206.4 mg/dL and 242.8 mg/dL and 220.9 mg/dL and 332.5 mg/dL and 314.8 mg/dL and 301 mg/dL and 171 mg/dL. For the same compound, the blood glucose ([3]; 8h, same doses) was 215.9 mg/dL and 255.1 mg/dL and 195.2 mg/dL and 297 mg/dL and 255.7 mg/dL and 245.8 mg/dL and 197.4 mg/dL, the blood glucose ([3]; 24h, same doses) was 269.1 mg/dL and 338.2 mg/dL and 240.2 mg/dL and 308.3 mg/dL and 291.4 mg/dL and 330 mg/dL and 166.4 mg/dL and the blood glucose ([3]; 48h, same doses) was 250.5 mg/dL and 412.5 mg/dL and 265.3 mg/dL and 242.5 mg/dL and 425.9 mg/dL and 396 mg/dL and 189.5 mg/dL. The “blood glucose level (in words)” value ([3]; KKAy mice, single administration, vs control (solvent-treated) group) was “decreased at 1 h after 46a administration and was maintained at a lower level for 24 h; also recorded: lowered the blood glucose”, the “OD505nm (nonfasting blood glucose)” value ([4]; 0h, alloxan-induced DM mice, single dose 46a 100 mg kg^‒1 or dapagliflozin 5 mg kg^‒1) was 0.431 and 0.458 and 0.49 and 0.52 and 0.521 and 0.444 and 0.562 and 0.464 and the “OD505nm (nonfasting blood glucose)” value ([4]; 1h, same doses) was 0.26 and 0.308 (2×) and 0.339 and 0.305 and 0.23 and 0.256 and 0.248. For the same compound, the “OD505nm (nonfasting blood glucose)” value ([4]; 2h, same doses) was 0.231 and 0.293 and 0.455 and 0.311 and 0.26 and 0.191 and 0.29 and 0.211, the “OD505nm (nonfasting blood glucose)” value ([4]; 4h, same doses) was 0.321 and 0.404 and 0.412 and 0.349 and 0.326 and 0.246 and 0.294 and 0.251 and the “OD505nm (nonfasting blood glucose)” value ([4]; 8h, same doses) was 0.424 and 0.434 and 0.432 and 0.559 and 0.489 and 0.42 and 0.457 and 0.316. For the same compound, the “OD505nm (nonfasting blood glucose)” value ([4]; 24h, same doses) was 0.5 and 0.59 and 0.679 and 0.688 and 0.606 and 0.51 and 0.507 and 0.483, the “OD505nm (nonfasting blood glucose)” value ([4]; 48h, same doses) was 0.317 and 0.566 and 0.646 and 0.639 and 0.631 and 0.47 and 0.542 and 0.494 and the “hypoglycemic activity (in words)” value ([4]; alloxan-induced DM mice, oral single administration) was “exhibited obviously hypoglycemic activity”. For the same compound, the “OD505nm (blood glucose, GOD assay) in OGTT” value (“OD505nm … in OGTT” below) ([5]; 0 min, ICR mice, oral 46a 100 mg kg^‒1 or dapagliflozin 5 mg kg^‒1) was 0.153 and 0.163 and 0.176 and 0.168 and 0.167 and 0.175 and 0.178, the “OD505nm … in OGTT” value ([5]; 15 min after glucose 2 g kg^‒1, oral 46a 100 mg kg^‒1 or dapagliflozin 5 mg kg^‒1) was 0.178 and 0.123 and 0.205 and 0.183 and 0.193 and 0.203 and 0.189 and the “OD505nm … in OGTT” value ([5]; 30 min after glucose, same doses) was 0.183 and 0.213 and 0.193 and 0.202 and 0.218 and 0.205 and 0.211. The “OD505nm … in OGTT” value ([5]; 60 min after glucose, same doses) was 0.19 (2×) and 0.208 and 0.2 and 0.178 and 0.187 and 0.202, the “OD505nm … in OGTT” value ([5]; 120 min after glucose, same doses) was 0.169 and 0.181 and 0.185 and 0.187 and 0.178 (2×) and 0.207 and the “blood glucose after glucose loading / glucose tolerance (in words)” value ([5]; ICR mice, 100 mg kg^‒1 46a oral) was “significantly lowered the peak value of blood glucose after glucose loading; also recorded: enhanced glucose tolerance”. The glucose in urine ([6]; 4h) was 11366 mg/dL and 12692 mg/dL and 12124 mg/dL, the glucose in urine ([6]; 6h) was 8584 mg/dL and 12278 mg/dL and 11404 mg/dL and 9012 mg/dL and the “urinary glucose excretion (in words)” value ([6]; single administration) was “elevated urinary glucose excretion; also recorded: promoted urinary glucose excretion”.
`CC(=O)NC1C(OP(=O)(O)OP(=O)(O)OCC2OC(n3ccc(=O)[nH]c3=O)C(O)C2O)OC(CO)C(O)C1O` (stereo not drawn) [f] was tested, and the “conversion rates, O,N,S-glycosylation” value [7] was 0%, the “conversion rates, di-C-glycosylation” value [7] was 0% and the “conversion rates, mono-C-glycosylation” value [7] was 0%.
For `O=C(O)C1OC(OP(=O)(O)OP(=O)(O)OCC2OC(n3ccc(=O)[nH]c3=O)C(O)C2O)C(O)C(O)C1O` [e, UDP-α-D-glucuronic acid], the “conversion rates, O,N,S-glycosylation” value [7] was 0%, the “conversion rates, di-C-glycosylation” value [7] was 0% and the “conversion rates, mono-C-glycosylation” value [7] was 4.8% and 5.3%.

From paper PMC7558026, “Exploring and applying the substrate promiscuity of a C-glycosyltransferase in the chemo-enzymatic synthesis of bioactive C-glycosides” (Nature Communications, 2020)
